Target: T1, Activated human p38α (Homo sapiens, UniProt Q16539)
T1 construct: purchased Upstate Biotechnology Inc. 14-251
Test: p38MAP kinase inhibition test
Type: biochemical
Conditions: at a concentration of 1 μmol/L; substrate myelin basic protein, ATP 20 μmol/L, [γ-32P]ATP; read-out: enzyme inhibitory activity
Method in brief: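 Radiometric kinase assay with myelin basic protein (20 μg/assay) as substrate, 20 μmol/L ATP plus [γ-32P]ATP, MOPS pH 7.2 with MgCl2 18.75 mmol/L. Reaction run 15 min at 30° C., stopped with phosphoric acid; 32P-MBP captured on phosphocellulose and counted by scintillation.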

T1 sequence (Q16539 whole entry): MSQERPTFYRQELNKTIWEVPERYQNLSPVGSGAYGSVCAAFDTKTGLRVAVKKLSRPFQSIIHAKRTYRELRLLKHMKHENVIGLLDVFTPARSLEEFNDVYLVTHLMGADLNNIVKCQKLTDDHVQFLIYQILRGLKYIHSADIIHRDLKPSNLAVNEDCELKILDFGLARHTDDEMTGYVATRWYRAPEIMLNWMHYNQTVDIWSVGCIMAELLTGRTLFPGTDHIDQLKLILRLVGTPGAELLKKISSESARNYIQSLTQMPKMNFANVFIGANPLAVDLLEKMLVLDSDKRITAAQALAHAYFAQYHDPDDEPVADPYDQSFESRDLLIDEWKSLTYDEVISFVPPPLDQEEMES

Structure (SMILES) | inhibition at 1 µM [%]
COc1cc2nc(NCC(C)C)ncc2cc1-c1ccccc1Cl [Compound 151, 6-(2-Chlorophenyl)-2-isobutylamino-7-methoxyquinazoline] | ≥ 50
COc1cc2nc(NC3CCNCC3)ncc2cc1-c1ccccc1Cl [Compound 152, 6-(2-Chlorophenyl)-7-methoxy-2-(piperidin-4-ylamino)quinazoline] | ≥ 50
CC[C@H](C)Nc1ncc2cc(-c3ccccc3Cl)c(OC)cc2n1 [Compound 155, (S)-2-(sec-Butylamino)-6-(2-chlorophenyl)-7-methoxyquinazoline] | ≥ 50
NC(=O)N1CCC(Nc2ncc3cc(-c4ccccc4Cl)c(O)cc3n2)CC1 [Compound 157, 2-(1-Carbamoylpiperidin-4-ylamino)-6-(2-chlorophenyl)-7-hydroxyquinazoline] | ≥ 50
N[C@H]1CC[C@H](Nc2ncc3cc(-c4ccccc4Cl)c(O)cc3n2)CC1 [Compound 158, 2-(trans-4-Aminocyclohexylamino)-6-(2-chlorophenyl)-7-hydroxyquinazoline] | ≥ 50
CC(C)CNc1ncc2cc(-c3ccccc3Cl)c(O)cc2n1 [Compound 160, 6-(2-Chlorophenyl)-7-hydroxy-2-isobutylaminoquinazoline] | ≥ 50
COc1cc2nc(N[C@@H](C)CO)ncc2cc1-c1ccccc1C [Compound 165, (S)-2-(1-Hydroxy-2-propylamino)-7-methoxy-6-(2-methylphenyl)quinazoline] | ≥ 50
CC[C@@H](C)Nc1ncc2cc(-c3ccccc3C)c(OC)cc2n1 [Compound 166, (R)-2-(sec-Butylamino)-7-methoxy-6-(2-methylphenyl)quinazoline] | ≥ 50
COc1cc2nc(NC(C)(C)C)ncc2cc1-c1ccccc1C [Compound 167, 2-(tert-Butylamino)-7-methoxy-6-(2-methylphenyl)quinazoline] | ≥ 50
COc1cc2nc(N[C@@H](C)C(C)C)ncc2cc1-c1ccccc1C [Compound 168, (S)-2-(3-methyl-2-butylamino)-7-methoxy-6-(2-methylphenyl)quinazoline] | ≥ 50

Next, values leading:

inhibition at 1 µM [%] | Structure (SMILES)
≥ 50 | COc1cc2nc(NC3CCN(S(C)(=O)=O)C3)ncc2cc1-c1ccccc1Cl (centres unmarked) [Compound 145, 6-(2-Chlorophenyl)-7-methoxy-2-[1-(methylsulfonyl)pyrrolidin-3-ylamino]quinazoline]
≥ 50 | COc1cc2nc(N[C@H]3CC[C@H](NS(C)(=O)=O)CC3)ncc2cc1-c1ccccc1Cl [Compound 146, 6-(2-Chlorophenyl)-7-methoxy-2-[trans-4-(methylsulfonylamino)cyclohexylamino]quinazoline]
≥ 50 | CCS(=O)(=O)N[C@H]1CC[C@H](Nc2ncc3cc(-c4ccccc4Cl)c(OC)cc3n2)CC1 [Compound 147, 6-(2-Chlorophenyl)-2-[trans-4-(ethylsulfonylamino)cyclohexylamino]-7-methoxyquinazoline]
≥ 50 | CCCS(=O)(=O)N1CCC(Nc2ncc3cc(-c4ccccc4Cl)c(OC)cc3n2)CC1 [Compound 148, 6-(2-Chlorophenyl)-7-methoxy-2-[1-(1-propylsulfonyl)piperidin-4-ylamino]quinazoline]
≥ 50 | CCOC(=O)N1CCC(Nc2ncc3cc(-c4ccccc4Cl)c(OC)cc3n2)CC1 [Compound 149, 6-(2-Chlorophenyl)-2-[1-(ethoxycarbonyl)piperidin-4-ylamino]-7-methoxyquinazoline]
≥ 50 | CCCS(=O)(=O)N1CCC(Nc2ncc3cc(-c4ccccc4Cl)c(O)cc3n2)CC1 [Compound 162, 6-(2-Chlorophenyl)-7-hydroxy-2-[1-(1-propylsulfonyl)piperidin-4-ylamino]quinazoline]
≥ 50 | COc1cc2nc(NC3CCN(S(C)(=O)=O)CC3)ncc2cc1-c1ccccc1C [Compound 164, 7-Methoxy-6-(2-methylphenyl)-2-[1-(methylsulfonyl)piperidin-4-ylamino]quinazoline]
